According to PMC2229105 (The Journal of General Physiology, 1992):
Like-named read-outs stand apart in the source and are kept apart here.

What was measured:
[1] = system: T-type Ca channels (guinea pig atrial cells); assay: whole-cell patch clamp, tail current analysis, modulated receptor theory; assay type: cell-based, Cavia porcellus; conditions: read-out: KI, inactivated state (apparent)
[2] = system: T-type Ca channels in GH3 cells; assay: as above; assay type: cell-based, Rattus norvegicus; conditions: read-out: KI; inactivated state (apparent); six experiments

Row | SMILES | Kd ([1]; 30-s prepulse) [nM] | also measured
1 | CC1=C(C(=O)OC(C)C)[C@@H](c2cccc3nonc23)C([N+](=O)[O-])=C(C)N1 [(-)-(R)-202-791] | 15.3 | 
2 | CCOC(=O)C1=C(C)NC(C)=C(C(=O)OC)C1c1cccc(Cl)c1Cl (stereo not shown) [felodipine] |  | Kd [2]: 680 ± 220 nM
3 | COC(=O)C1=C(C)NC(C)=C(C(=O)OC(C)C)C1c1cccc2nonc12 (stereo not shown) [isradipine] | 20.4 | 
4 | CC(C)COCC(CN(Cc1ccccc1)c1ccccc1)N1CCCC1 (stereo not shown) [bepridil] |  | Kd ([1]; from block by 0.5 µM drug): 1240 nM
